Assays:
[1] = cited from earlier work
[2] = in vivo

Question: For `CC(=O)N[C@@H](CS)C(=O)O` [NAC, N-acetyl-L-cysteine], which “membrane penetration / cell permeability” value [1] is on record?
Answer: The value was “low membrane penetration”.

Question: And the “crossing of the blood-brain barrier” value [2]?
Answer: Its value is “inability to cross the blood-brain barrier”.

— patent publication US20150209309A1, “NACA FOR THE TREATMENT OF CHRONIC OR ACUTE COGNITIVE DYSFUNCTION” (Brighton Biotech, Inc, priority 2014, published 2015)
